In experiment [1] the test system is NIH3T3 cells. Description: Cell viability (Presto Blue assay), NIH3T3. It counts as cell-based. Conditions: for cell viability: 24 h, Presto Blue, n = 3. As to the method: (§1) Cells were plated in 96-well plates (2.5 × 10^4 cells/well) and treated with GET-FYLIR (0–50 μM) for 24 h. Cells were also treated with GET-Scrambled as a control. After treatment, cells were washed with PBS and then incubated for 15 min at 37 °C with a 100-μl Presto Blue solution (10% Presto Blue, Invitrogen in Hanks' balanced salt solution, Sigma). Change in the fluorescence was measured using a plate reader with the excitation/emission wavelengths set at 560/590 nm (Infinite® 200 PRO, TECAN), with untreated cells used as a control. All data sets were combined for the statistical analysis. A Sidak's multiple comparisons test was applied. N refers to the number of biological replicates.

Experiment [2] deals with Panc1 cells. Description: Cell viability (Presto Blue assay), Panc1. It counts as cell-based, human. As to the method: as §1
Experiment [3] deals with NIH3T3 cells. In words: Cell cycle analysis (propidium iodide, flow cytometry), NIH3T3. In kind it is cell-based. The following applies: NIH3T3, 20 μM, 24 h, n = 5. Here is the method:
(§2) Cells were plated in 24-well plates (1 × 10^5 cells/well) and treated with GET-FYLIR (20 μM) for 24 h. The cells were treated with trypsin, detached from the plate, and centrifuged at 200 × g for 5 min. The supernatant was aspirated, and the cells were resuspended in PBS. The cells were fixed in 70% ethanol for 1 h at 4 °C. The cells were washed with PBS and incubated in propidium iodide staining solution (0.1% (v/v) Triton X-100, 10 μg/ml propidium iodide (Sigma), and 100 μg/ml DNase-free RNase A in PBS) for 30 min at room temperature. Cells were analyzed using an FC500 flow cytometer (Beckman Coulter) equipped with a 488-nm laser, and data from at least 10,000 cells were acquired for each sample. Cells were gated based on forward and side scatter, and doublets excluded by height/area analysis. Cell cycle percentages were calculated by curved fit using Weasel Version 3.0 (Walter and Eliza Hall Institute of Medical Research). Data shown are representative. All data sets were combined for the statistical analysis. A Sidak's multiple comparisons test was applied. N refers to the number of biological replicates. All curves and statistical analyses were produced using Prism 7 (GraphPad Software).
On the technique in general: A flow cytometer gives signals particle by particle.

For a further experiment, the system named is HeLa cells. In words: Confocal microscopy, intracellular localization. The following applies: 10 μM, 24 h, confocal imaging. In kind it is cell-based, human. As to the method:
HeLa cells were plated onto 10-mm diameter glass coverslips (1 × 10^5 cells/coverslip). Cells treated with GET-FYLIR were fixed for 10 min in 3.7% (w/v) paraformaldehyde (Sigma), stained with 1 μg/ml Hoechst 33342 (Molecular Probes) for a further 10 min, washed, and mounted. Cells were imaged using an LSM880C confocal microscope (Zeiss, Germany). A ×63 objective lens was used with a […] laser used for Hoechst 33342 and a 561-nm DPSS laser for GET-FYLIR–transduced cells. Images were captured and processed using ZEN software (Zeiss, Germany).

The subject of experiment [4] is Panc1 cells. In words: Cell cycle analysis (propidium iodide, flow cytometry), Panc1. The following applies: Panc1, 20 μM, 24 h, p < 0.0001, n = 7. In kind it is cell-based, human. As to the method:
as §2

Experiment [5] concerns KNS-42, U87, HeLa, MCF7, Panc1, NIH3T3 and BJ6 cell lines. Description: Cellular delivery by GET system. In kind it is cell-based. Conditions: TAMRA-tagged peptide. The source says: We next evaluated the effect of the FYLIR peptide ligand on cells in culture. The novel GET system, developed for highly efficient nucleic acid, protein and peptide delivery ([35]), was used to deliver the FYLIR peptide. GET is based on the use of cell-penetrating peptides modified with heparin-binding sequences, which enhance cellular uptake by endocytosis. The synthetic peptide, GET-FYLIR, designed for these studies harbored an N-terminal TAMRA fluorescent tag, for easy visualization, fused to the GET (P21 and 8 Arg ([35])) and FYLIR sequences. […] Having established efficient delivery, the peptide's effect was investigated by assessing cell viability.

Experiment [6] deals with BJ6 human dermal fibroblasts. In words: Cell viability (Presto Blue assay), BJ6. Conditions: 24 h; for cell viability: n = 3. In kind it is cell-based. As to the method: as §1
The test system of another experiment is U87 cells. In words: Cell viability (Presto Blue assay), U87. In kind it is cell-based, human. Conditions: 24 h, n = 3. As to the method: as §1
Experiment [7] deals with Panc1 cells. Description: Cell uptake (flow cytometry), Panc1. Conditions: 1 h and 24 h, compared with NIH3T3, flow cytometry. In kind it is cell-based, human. As to the method:
(§3) Cells treated with GET-FYLIR or GET-Scrambled were analyzed on an Astrios cell sorter using a 488-nm […] laser (40,000 cells; gated on live cells by forward/side scatter). Gmean was used as the average cell intensity. All data sets were combined for the statistical analysis. A Sidak's multiple comparisons test was applied. N refers to the number of biological replicates.

Experiment [8] relates to NIH3T3 cells. In words: Cell uptake (flow cytometry), NIH3T3. It counts as cell-based. The following applies: compared with Panc1, flow cytometry. Here is the method: as §3
The next experiment relates to USP11. The following applies: cited from earlier work. The source says:
(§4) Several reports link USP11 to cell cycle progression and proliferation, although the detailed mechanisms are only partially understood. For example, (i) cell growth assays in MCF-7 and MDA-MB-231 cells show an increase in cell numbers upon USP11 overexpression, whereas USP11 knockdown leads to growth inhibition ([48]); (ii) USP11 itself is under cell cycle control and turns over rapidly in G1 cells, especially upon DNA damage induction, whereas expression of USP11 in S phase is high and insensitive to DNA damage ([12]). Knockdown of USP11 results in the activation of DNA damage-response pathwa ...

Experiment [9] has as its system Panc1 cells. Conditions: cited from earlier work.
Excerpt: as §4

*: point of attachment. 5TAMRA = CN(C)c1ccc2c(c1)Oc1cc(N(C)C)ccc1C21OC(=O)c2cc(C(=O)*)ccc21

Turning to “5TAMRA-KRKKKGKGLGKKRDPCLRKYKRRRRRRRRAEGEFYKLKIRTPR-NH2 [GET-FYLIR]”, the cell viability effects entry in the experiment with NIH3T3 cells [1] (NIH3T3, 5 μM, uptake experiment, 1 and 24 h) is recorded as “cell viability effects in Panc1 but not NIH3T3 cells were observed”; in the experiment with Panc1 cells [2] (Panc1, 5 μM, uptake experiment, 1 and 24 h) it was “cell viability effects in Panc1 but not NIH3T3 cells were observed”. Besides, the cell viability result is listed as “retained” with NIH3T3 cells [1] (NIH3T3, 10 μM); “minimal effect” with NIH3T3 cells [1] (NIH3T3, 20 μM); “retained” in experiment [6] (BJ6, 10 μM); “minimal effect” in experiment [6] (BJ6, 20 μM); “retained” in the experiment with U87 cells (U87, 10 μM); “minimal effect” in the experiment with U87 cells (U87, 20 μM). In the experiment with Panc1 cells [2] (Panc1, 10 μM, 24 h, Presto Blue, n = 3 biological repeats), this compound returned a loss of viability of about 50%. Moreover, the “sensitivity to dose (viability)” value with Panc1 cells [2] (Panc1, up to 50 μM, 24 h, Presto Blue) is listed as “particularly sensitive”; in [6] (BJ6, up to 50 μM), “relatively insensitive”. For the same compound, the “subG0 fraction” value is listed as 0.8% with NIH3T3 cells [3] (from 0.2% untreated, not significant, p = 0.9992) and 8% in the experiment on Panc1 cells [4] (from 0.9% untreated). The “fraction of cells in S phase” value is given as 37.5% in the experiment on NIH3T3 cells [3] (from 24.8% untreated, p < 0.0001) and 52.8% in the experiment with Panc1 cells [4] (from 36.9% untreated). Also, the endosomal escape result in the experiment on HeLa cells is “efficiently escapes endosomal vesicles”. The subcellular localization result in the experiment on HeLa cells was “both the cell cytoplasm and the nucleus, with the highest accumulation in nucleoli”. Also, the “fold increase of subG0 fraction” value in the experiment with Panc1 cells [4] (versus untreated) was about 9 fold. The cellular delivery result in experiment [5] was “efficiently delivered to all cell lines tested”. For the same compound, the cell uptake entry was “little difference in cell uptake in either cell type” in the experiment on Panc1 cells [7] (Panc1, 1 μM); “increased uptake in Panc1 cells for both 1- and 24-h incubations” in the experiment on Panc1 cells [7] (Panc1, 5 μM); “little difference in cell uptake in either cell type” in the experiment with NIH3T3 cells [8] (NIH3T3, 1 μM, 1 h and 24 h); “significantly lower than Panc1 cells” in the experiment on NIH3T3 cells [8] (NIH3T3, 5 μM, both incubation times).

Turning to `O=C1c2c(O)ccc(O)c2C(=O)c2c(NCCNCCO)ccc(NCCNCCO)c21` [mitoxantrone], in the experiment with USP11, the USP11 inhibition result is recorded as “inhibits USP11”. In addition, the cell death entry in the experiment with Panc1 cells [9] is recorded as “dose-dependent cell death”.

The values are drawn from PMC6333900, “Discovery of peptide ligands targeting a specific ubiquitin-like domain–binding site in the deubiquitinase USP11” (The Journal of Biological Chemistry, 2018).
